Patent publication EP1401829B1, “NOVEL HETEROCYCLIC ANTIBACTERIAL COMPOUNDS” (Microbiotix, Inc., priority 2001, dated 2002)
≈ marks a conversion by molar mass, not a printed value.

Tests used:
[1] = system: E. fecium; assay: Minimal Inhibitory Concentration (MIC) determination, 96 well plates; assay type: cell-based, Enterococcus fecium; settings: Enterococcus; HBI medium, 16 to 18 hours at 37°C; read-out: MIC (µg/ml) E. fecium
Experimental: (§1) The following methods were used to characterize representative compounds. Minimal Inhibitory Concentration (MIC) determinations. MIC values were determined in 96 well plates, with bacterial growth monitored at OD 600 nm in 200µl following an initial bacterial seeding at approximately 1x10^5 colony forming units (CFU)/ml. Each drug is evaluated at five concentrations, with five data points at each dilution. MIC values (µg/ml) were determined against actively growing cultures in Heart-Brain Infusion (HBI) medium. Cell growth in cultures supplemented with a test compound was calculated as a percent of control at OD 600 nm after 16 to 18 hours at 37°C. […] Polymerase IIIC (Pol IIIC) assay. DNA polymerase activity (or inhibition thereof) was measured in a 96-well plate format. B. subtilis Pol IIIC was isolated as described by Hammond and Brown (Protein Expr. Purif., 3: 65-70 (1992)). Each 25 µl assay contained 30 mM Tris, pH 7.5, 10 mM magnesium acetate, 4 mM dithiothreitol, 20% glycerol, with 25 µM dATP, dCTP, dGTP and 10 µM dTTP (^3H-labelled at 1.44 Ci/mmole) and 0.4 mg/ml activated calf thymus DNA as substrates, as described previously (see Barnes et al, op. cit). Assays were initiated by the addition of 0.025 to 0.06 units of enzyme 1 unit is the amount required to incorporate 250 pmoles of [^3H] dTMP in a standard assay), incubated for 10 minutes at 30°C and terminated by the addition of 200 µl of cold 10% trichloroacetic acid (TCA),10 mM sodium pyrophosphate. Precipitated labeled DNA was collected on glass fiber filter plates, washed, dried, and counted in a liquid scintillation counter. Determination of Ki values. DNA polymerase activity was measured in a 96-well plate format in the absence of dGTP or dATP, depending on the structure of the test compound. Each 25 µl assay contained 30 mM Tris, pH 7.5, 10 mM magnesium acetate, 4 mM dithiothreitol, 20% glycerol, with 25 µM dATP, dCTP, and 10 µM dTTP (^3H-labelled at 1.44 Ci/mmole) and 0.4 mg/ml activated calf thymus DNA as substrates, as described previously. […] Assays were initiated by the addition of 0.025 to 0.06 units of enzyme (1 unit is the amount required to incorporate 250 pmoles of [^3H] dTMP in a standard assay), incubated for 10 minutes at 30 °C and terminated by the addition of 200 µl of cold 10% trichloroacetic acid, 10 mM sodium pyrophosphate. Precipitated labeled DNA was collected on glass fiber filter plates, washed, dried, and counted in a liquid scintillation counter. Ki is the concentration of test compound that reduces the control polymerase IIIC activity by 50 percent.
(§2) MIC values were determined for the Gram positive bacteria Bacillus subtilis, Staphylococcus aureus (two strains), Enterococcus fecalis, Enterococcus fecium, and for the Gram negative bacterium Escherichia coli.

[2] = system: E. fecalis; assay: as above; assay type: cell-based, Enterococcus fecalis; settings: Enterococcus; HBI medium, 16 to 18 hours at 37°C; read-out: MIC (µg/ml) E. fecalis
Experimental: as §1, §2

[3] = system: B. subtilis; assay: as above; assay type: cell-based, Bacillus subtilis; settings: Bacillus subtilis; HBI medium, 16 to 18 hours at 37°C; read-out: MIC (µg/ml) B. subtilis
Experimental: as §1, §2

[4] = system: E. coli; assay: as above; assay type: cell-based, Escherichia coli; settings: Escherichia coli; HBI medium, 16 to 18 hours at 37°C; read-out: MIC (µg/ml) E. coli
Experimental: (§3) The following methods were used to characterize representative compounds. Minimal Inhibitory Concentration (MIC) determinations. MIC values were determined in 96 well plates, with bacterial growth monitored at OD 600 nm in 200µl following an initial bacterial seeding at approximately 1x10^5 colony forming units (CFU)/ml. Each drug is evaluated at five concentrations, with five data points at each dilution. MIC values (µg/ml) were determined against actively growing cultures in Heart-Brain Infusion (HBI) medium. Cell growth in cultures supplemented with a test compound was calculated as a percent of control at OD 600 nm after 16 to 18 hours at 37°C. This plate format conserves test compound and provides precise, quantitative data with low standard deviation determinations. Polymerase IIIC (Pol IIIC) assay. DNA polymerase activity (or inhibition thereof) was measured in a 96-well plate format. B. subtilis Pol IIIC was isolated as described by Hammond and Brown (Protein Expr. Purif., 3: 65-70 (1992)). Each 25 µl assay contained 30 mM Tris, pH 7.5, 10 mM magnesium acetate, 4 mM dithiothreitol, 20% glycerol, with 25 µM dATP, dCTP, dGTP and 10 µM dTTP (^3H-labelled at 1.44 Ci/mmole) and 0.4 mg/ml activated calf thymus DNA as substrates, as described previously (see Barnes et al, op. cit). Assays were initiated by the addition of 0.025 to 0.06 units of enzyme 1 unit is the amount required to incorporate 250 pmoles of [^3H] dTMP in a standard assay), incubated for 10 minutes at 30°C and terminated by the addition of 200 µl of cold 10% trichloroacetic acid (TCA),10 mM sodium pyrophosphate. Precipitated labeled DNA was collected on glass fiber filter plates, washed, dried, and counted in a liquid scintillation counter. Determination of Ki values. DNA polymerase activity was measured in a 96-well plate format in the absence of dGTP or dATP, depending on the structure of the test compound. Each 25 µl assay contained 30 mM Tris, pH 7.5, 10 mM magnesium acetate, 4 mM dithiothreitol, 20% glycerol, with 25 µM dATP, dCTP, and 10 µM dTTP (^3H-labelled at 1.44 Ci/mmole) and 0.4 mg/ml activated calf thymus DNA as substrates, as described previously. To each well were added 2 µl of compound solution to give final concentrations ranging from 20 - 0.027 µg/ml in the assay. Assays were initiated by the addition of 0.025 to 0.06 units of enzyme (1 unit is the amount required to incorporate 250 pmoles of [^3H] dTMP in a standard assay), incubated for 10 minutes at 30 °C and terminated by the addition of 200 µl of cold 10% trichloroacetic acid, 10 mM sodium pyrophosphate. Precipitated labeled DNA was collected on glass fiber filter plates, washed, dried, and counted in a liquid scintillation counter. Ki is the concentration of test compound that reduces the control polymerase IIIC activity by 50 percent.
as §2

[5] = biological target: T1, B. subtilis Pol IIIC (Bacillus subtilis, UniProt P13267); assay: Polymerase IIIC (Pol IIIC) assay, determination of Ki values; assay type: biochemical; settings: Ki (µM) Pol IIIC, assay in absence of dGTP or dATP; Ki is the concentration that reduces control polymerase IIIC activity by 50 percent
T1 construct: made in house
T1 sequence (P13267 whole entry): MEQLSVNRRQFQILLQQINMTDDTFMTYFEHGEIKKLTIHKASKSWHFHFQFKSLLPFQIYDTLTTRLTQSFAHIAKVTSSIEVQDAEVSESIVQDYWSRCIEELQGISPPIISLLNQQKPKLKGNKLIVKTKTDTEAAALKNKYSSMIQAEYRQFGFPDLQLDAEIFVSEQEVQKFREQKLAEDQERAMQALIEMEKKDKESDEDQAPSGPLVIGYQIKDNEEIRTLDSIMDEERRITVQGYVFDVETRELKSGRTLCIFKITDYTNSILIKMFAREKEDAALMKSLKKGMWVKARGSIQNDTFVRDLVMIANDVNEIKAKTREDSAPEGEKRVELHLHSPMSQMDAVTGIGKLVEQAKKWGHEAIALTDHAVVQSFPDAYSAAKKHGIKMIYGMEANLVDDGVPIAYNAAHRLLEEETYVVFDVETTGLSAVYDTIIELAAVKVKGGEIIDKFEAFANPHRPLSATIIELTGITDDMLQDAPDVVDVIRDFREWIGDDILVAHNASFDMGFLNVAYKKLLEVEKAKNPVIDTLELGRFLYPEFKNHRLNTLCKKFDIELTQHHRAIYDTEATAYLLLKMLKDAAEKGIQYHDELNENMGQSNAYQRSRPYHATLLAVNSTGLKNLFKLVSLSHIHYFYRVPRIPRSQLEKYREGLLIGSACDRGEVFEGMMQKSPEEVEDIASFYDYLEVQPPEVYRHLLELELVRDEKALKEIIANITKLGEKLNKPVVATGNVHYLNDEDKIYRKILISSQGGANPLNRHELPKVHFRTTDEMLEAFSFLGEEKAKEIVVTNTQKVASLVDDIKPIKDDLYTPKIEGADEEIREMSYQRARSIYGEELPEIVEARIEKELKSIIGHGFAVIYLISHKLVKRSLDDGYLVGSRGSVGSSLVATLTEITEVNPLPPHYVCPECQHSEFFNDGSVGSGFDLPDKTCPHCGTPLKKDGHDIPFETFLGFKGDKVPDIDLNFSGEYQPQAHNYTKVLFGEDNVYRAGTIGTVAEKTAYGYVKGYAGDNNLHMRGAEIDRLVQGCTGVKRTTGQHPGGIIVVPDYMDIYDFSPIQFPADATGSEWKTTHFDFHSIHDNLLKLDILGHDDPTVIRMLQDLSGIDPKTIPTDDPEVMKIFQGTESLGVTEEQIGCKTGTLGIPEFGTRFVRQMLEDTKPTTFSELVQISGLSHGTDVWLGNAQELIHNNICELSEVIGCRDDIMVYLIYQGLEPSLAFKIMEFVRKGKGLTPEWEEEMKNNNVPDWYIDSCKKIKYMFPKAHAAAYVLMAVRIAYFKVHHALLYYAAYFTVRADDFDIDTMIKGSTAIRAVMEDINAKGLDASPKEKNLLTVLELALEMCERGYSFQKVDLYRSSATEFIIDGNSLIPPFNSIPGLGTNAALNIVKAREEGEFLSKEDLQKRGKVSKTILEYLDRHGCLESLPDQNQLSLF
Experimental: as §1

[6] = system: S. aureus; assay: Minimal Inhibitory Concentration (MIC) determination, 96 well plates; assay type: cell-based, Staphylococcus aureus; settings: Staphylococcus aureus; HBI medium, 16 to 18 hours at 37°C; read-out: MIC (µg/ml) S. aureus
Experimental: as §3, §2

[7] = system: S.aureus (Smith); assay: as above; assay type: cell-based, Staphylococcus aureus; settings: Staphylococcus aureus; HBI medium, 16 to 18 hours at 37°C; read-out: MIC (µg/ml) S.aureus (Smith)
Experimental: as §1, §2

SMILES	MIC [1]	MIC [2]	MIC [3]	MIC [4]	Ki [5]	MIC [6]	MIC [7]
O=C(O)c1cn(C2CC2)c2cc(N3CCN(CCCCn4c(=O)cc(NCc5ccc(Cl)c(Cl)c5)[nH]c4=O)CC3)c(F)cc2c1=O [Compound 68, 3-{4-[1-(1-cyclopropyl-3-carboxy-4-oxo-6-fluoro-7-quinolyl)-4-piperazinyl]butyl}-6-(3,4-dichlorobenzylamino)uracil]	1.25 µg/mL (≈ 1.86 µM)	40 µg/mL (≈ 59.6 µM)	0.95 µg/mL (≈ 1.41 µM)	12.5 µg/mL (≈ 18.6 µM)	0.047 µM	1.25 µg/mL (≈ 1.86 µM)	0.625 µg/mL (≈ 0.931 µM)
CCc1cc(Nc2cc(=O)n(CCCCN3CCN(c4cc5c(cc4F)c(=O)c(C(=O)O)cn5C4CC4)C(C)C3)c(=O)[nH]2)ccc1C (centres unmarked) [Compound 69, 3-{4-[1-(1-cyclopropyl-3-carboxy-4-oxo-6-fluoro-7-quinolyl)-2-methyl-4-piperazinyl]butyl}-6-(3-ethyl-4-methylanilino)uracil]	1.25 µg/mL (≈ 1.94 µM)	0.95 µg/mL (≈ 1.47 µM)	0.23 µg/mL (≈ 0.357 µM)	30 µg/mL (≈ 46.5 µM)	0.026 µM	0.625 µg/mL (≈ 0.969 µM)	0.46 µg/mL (≈ 0.713 µM)
CCc1cc(Nc2cc(=O)n(CCCCN3CCN(c4c(F)cc5c(=O)c(C(=O)O)cn(C6CC6)c5c4F)C[C@@H]3C)c(=O)[nH]2)ccc1C [Compound 71, (S)-3-{4-[1-(1-cyclopropyl-3-carboxy-4-oxo-6,8-difluoro-7-quinolyl)-3-methyl-4-piperazinyl]butyl}-6-(3-ethyl-4-methylanilino)uracil]	1.87 µg/mL (≈ 2.82 µM)	1.25 µg/mL (≈ 1.89 µM)	0.156 µg/mL (≈ 0.235 µM)	5 µg/mL (≈ 7.54 µM)	0.007 µM	0.313 µg/mL (≈ 0.472 µM)	0.156 µg/mL (≈ 0.235 µM)
CCc1cc(Nc2cc(=O)n(CCCCN3CCN(c4c(F)cc5c(=O)c(C(=O)O)cn(C6CC6)c5c4F)C[C@H]3C)c(=O)[nH]2)ccc1C [Compound 72, (R)-3-{4-[1-(1-cyclopropyl-3-carboxy-4-oxo-6,8-difluoro-7-quinolyl)-3-methyl-4-piperazinyl]butyl}-6-(3-ethyl-4-methylanilino)uracil]	1.25 µg/mL (≈ 1.89 µM)	1.25 µg/mL (≈ 1.89 µM)	0.156 µg/mL (≈ 0.235 µM)	20 µg/mL (≈ 30.2 µM)	0.004 µM	0.625 µg/mL (≈ 0.943 µM)	0.625 µg/mL (≈ 0.943 µM)
CCc1cc(Nc2ccc(CCCCN3CCN(c4cc5c(cc4F)c(=O)c(C(=O)O)cn5CC)CC3)c(=O)[nH]2)ccc1C [Compound 78, 3-{4-[1-(1-ethyl-3-carboxy-4-oxo-6-fluoro-7-quinolyl)-4-piperazinyl]butyl}-6-(3-ethyl-4-methylanilino)-2-pyridone]	5 µg/mL (≈ 8.31 µM)	5 µg/mL (≈ 8.31 µM)	0.625 µg/mL (≈ 1.04 µM)	> 80 µg/mL	2.4 µM	1.25 µg/mL (≈ 2.08 µM)	2.5 µg/mL (≈ 4.15 µM)
